Assay results from patent publication US8399681B2, “Substituted aminothiazolone indazoles as estrogen related receptor-alpha modulators” (Janssen Pharmaceutica NV, priority 2009, dated 2013).

Columns and labels:
[1] = molecular target: T1, ERR1 (also known as ERR-α or ERR-1) (Homo sapiens, UniProt P11474); assay: TR-FRET assay (disruption of co-activator peptide binding); assay type: biochemical; conditions: 6His-tagged ERR1 LBD, GST-hSRC2 co-activator polypeptide; average of 3 independent experiments
T1 sequence (P11474 193-421 limits assumed): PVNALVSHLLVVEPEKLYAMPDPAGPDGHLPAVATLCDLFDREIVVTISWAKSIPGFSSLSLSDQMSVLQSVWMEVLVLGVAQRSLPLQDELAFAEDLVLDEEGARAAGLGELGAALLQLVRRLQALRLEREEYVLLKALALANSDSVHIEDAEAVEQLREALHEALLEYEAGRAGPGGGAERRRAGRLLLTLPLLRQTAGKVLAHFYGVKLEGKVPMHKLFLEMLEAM
In short: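 His6-ERR1 LBD (6 nM) with GST-SRC-2 peptide (6 nM), anti-GST Eu cryptate (30 nM) and anti-His XL665 (7.5 nM) in Tris pH 8/KCl/DTT/BSA buffer, equilibrated 4-18 h at 25 °C. Ex 340, em 615/665 nm; hyperbolic dose-response fit, mean of 3 experiments.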

Zucker fa/fa male rats = assay: Zucker fa/fa Rat Model Assay; assay type: in vivo; conditions: dosed orally once a day for 4 days, blood collected at day 5
From the text: Zucker fa/fa is a monogenic model of frank diabetes due to a mutation on the fa gene truncating the leptin receptor and preventing its interaction with its peptide hormone. This mutation results in a hyperphagic phenotype and the rodent develops obesity, hyperlipidemia, fasting hyperglycemia and insulin resistance. Zucker fa/fa male rats were received at four weeks of age and allowed to acclimate for one week. At five weeks of age the animals were single housed in cages in a temperature-controlled room with 12-hour light/dark cycle. The rats were allowed ad libitum access to water and food and throughout the study were maintained on a Purina 5008 diet. Animals were sorted based primarily on fed insulin levels and circulating triglycerides. Animals were dosed orally once a day in the morning for 4 days. The vehicle used was either 20% HPβCD (Hydroxypropyl Beta Cyclodextrin) or 15% Vitamin E/30% PEG-400 (Polyethylene Glycol 400). Fed insulin and triglycerides were measured using blood collected from the tail vein at day 5. Serum plasma samples were prepared by centrifugation in EDTA (Ethylenediaminetetraacetic acid) containing tubes, transferred into 96 well plates and stored at −80° C.

Row | SMILES | EC50 [1] | % Lowering Fed Insulin Levels (Zucker fa/fa male rats) | % Lowering Fed Triglyceride Levels (Zucker fa/fa male rats)
1 | O=C1N=C(N2CCC(C(=O)O)CC2)S/C1=C\c1ccc2c(cnn2Cc2ccc(C(F)(F)F)cc2C(F)(F)F)c1 [Compound 1, 1-{5-[1-(2,4-Bis-trifluoromethyl-benzyl)-1H-indazol-5-ylmethylene]-4-oxo-4,5-dihydro-thiazol-2-yl}-piperidine-4-carboxylic acid] | 10.1 nM | 58% | 37%
2 | N[C@H]1CCCN(C2=NC(=O)/C(=C/c3ccc4c(cnn4Cc4ccc(C(F)(F)F)cc4C(F)(F)F)c3)S2)C1 [Example 52, 2-(3-(S)-Amino-piperidin-1-yl)-5-[1-(2,4-bis-trifluoromethyl-benzyl)-1H-indazol-5-ylmethylene]-thiazol-4-one] | 4.5 nM | 86% | 55%
3 | COCCN1CCN(C2=NC(=O)/C(=C/c3ccc4c(cnn4Cc4ccc(Cl)cc4C(F)(F)F)c3)S2)CC1 [Example 56, 5-[1-(4-Chloro-2-trifluoromethyl-benzyl)-1H-indazol-5-ylmethylene]-2-[4-(2-methoxy-ethyl)-piperazin-1-yl]-thiazol-4-one] | 15.7 nM | 70% | 68%
4 | O=C1N=C(N2CCC[C@H]2CN2CCCC2)S/C1=C\c1ccc2c(cnn2Cc2ccc(Cl)cc2C(F)(F)F)c1 [Example 64, 5-[1-(4-Chloro-2-trifluoromethyl-benzyl)-1H-indazol-5-ylmethylene]-2-(S)-(2-pyrrolidin-1-ylmethyl-pyrrolidin-1-yl)-thiazol-4-one] | 25 nM | 46% | 51%

Continued by falling EC50 [1], values first:

Row | EC50 [1] | SMILES | % Lowering Fed Insulin Levels (Zucker fa/fa male rats) | % Lowering Fed Triglyceride Levels (Zucker fa/fa male rats)
5 | 17.3 nM | N[C@@H]1CCN(C2=NC(=O)/C(=C/c3ccc4c(cnn4Cc4ccc(Cl)cc4C(F)(F)F)c3)S2)C1 [Example 62, 2-(3-(R)-Amino-pyrrolidin-1-yl)-5-[1-(4-chloro-2-trifluoromethyl-benzyl)-1H-indazol-5-ylmethylene]-thiazol-4-one] | 48% | 36%
6 | 14.3 nM | O=C1N=C(N2CC(C(=O)O)C2)S/C1=C\c1ccc2c(cnn2Cc2ccc(C(F)(F)F)cc2C(F)(F)F)c1 [Example 35, 1-{5-[1-(2,4-Bis-trifluoromethyl-benzyl)-1H-indazol-5-ylmethylene]-4-oxo-4,5-dihydro-thiazol-2-yl}-azetidine-3-carboxylic acid] | 45% | 20%
7 | 13.1 nM | O=C1N=C(N2CCCNCC2)S/C1=C\c1ccc2c(cnn2Cc2ccc(Cl)cc2C(F)(F)F)c1 [Example 54, 5-[1-(4-Chloro-2-trifluoromethyl-benzyl)-1H-indazol-5-ylmethylene]-2-[1,4]diazepan-1-yl-thiazol-4-one] | 60% | 27%
8 | 8 nM | O=C1N=C(N2CC(C(=O)O)C2)S/C1=C\c1ccc2c(cnn2Cc2ccc(Cl)cc2C(F)(F)F)c1 [Example 40, 1-{5-[1-(4-Chloro-2-trifluoromethyl-benzyl)-1H-indazol-5-ylmethylene]-4-oxo-4,5-dihydro-thiazol-2-yl}-azetidine-3-carboxylic acid] | 75% | 60%
9 | 3.2 nM | O=C1N=C(N2CCC(C(=O)O)CC2)S/C1=C\c1ccc2c(cnn2Cc2ccc(Cl)cc2C(F)(F)F)c1 [Example 39, 1-{5-[1-(4-Chloro-2-trifluoromethyl-benzyl)-1H-indazol-5-ylmethylene]-4-oxo-4,5-dihydro-thiazol-2-yl}-piperidine-4-carboxylic acid] | 58% | 35%
